Literature values in patent US20070184110A1, “Dipyridamole extended-release formulations and process for preparing same” (priority 2006, published 2007).

Conditions: above a pH of 4

- solubility in water: practically insoluble
SMILES: OCCN(CCO)c1nc(N2CCCCC2)c2nc(N(CCO)CCO)nc(N3CCCCC3)c2n1 [Dipyridamole, 2,6-bis-(diethanolamino)-4,8-dipiperidino-(5,4-d)-pyrimidine]
